Laboratory results from patent US20230416207A1, “CRYSTALLINE FORMS OF QUINAZOLINONE COMPOUND AND PROCESS FOR PREPARING THE SAME” (priority 2020, published 2023).
In brackets after ≈: the same amount, converted by molar mass.

What was measured:
Format in all cases: physicochemical
[1] = Solubility of crystalline forms in simulated gastric fluid (SGF)
From the text: (§1) The UPLC data of the present disclosure were collected on Waters H Class, with photo-diode array detector. The UPLC parameters for purity and solubility test of the present disclosure were as follows: • 1. Column: Waters Xbridge C18, 150×4.6 mm, 5 μm • 2. Mobile phase: A: 0.05% trifluoroacetic acid in water; B: 0.05% trifluoroacetic acid in acetonitrile
Suspend Forms D, AL, and Z of the present disclosure and Form B in the prior art in simulated gastric fluid (SGF) to form suspensions, respectively. After equilibrium for 1 hour, 2 hours and 4 hours, filter the suspensions to form saturated solutions. Determine the concentration of API in corresponding saturated solution by HPLC.

[2] = Crystal habit study (PLM); conditions: for Crystal habit (PLM): dispersed in vacuum pump oil; for Powder flow property: inferred from PLM crystal habit
Procedure: The polarized light microscope photos of the present disclosure were taken at room temperature with a Zeiss microscope Axio Scope.A1 equipped with an Axiocam 305 color camera and 5×, 10×, 20× and 50× objective lenses.
Weigh about 10 mg of Forms Z and AL of the present disclosure onto a glass slide, respectively. Disperse each solid with several vacuum pump oil, and then cover with a cover glass. Observe the sample using PLM.

[3] = Solubility of crystalline forms in fasted-state simulated intestinal fluid (FaSSIF)
From the text: as §1
Suspend Forms D and Z of the present disclosure and Form B in the prior art in fasted-state simulated intestinal fluid (FaSSIF) to form suspensions, respectively. After equilibrium for 1 hour, 2 hours and 4 hours, filter the suspensions to form saturated solutions. Determine the concentration of API in corresponding saturated solution by HPLC.

[4] = Hygroscopicity study (DVS); conditions: for Water uptake at 80% RH: 25° C.; for Hygroscopicity: class per Chinese Pharmacopoeia 2010
Procedure: The dynamic vapor sorption diagrams of the present disclosure were collected on Intrinsic-type and Intrinsic Plus-type dynamic vapor sorption instruments of SMS company. The process parameters of the dynamic vapor sorption test of the present disclosure were as follows: • Temperature: 25° C. • Protection gas and its flow rate: N2, 200 mL/minute • dm/dt: 0.002%/minute • Minimum dm/dt equilibration time: 10 minutes • Maximum Equilibration Time: 180 minutes • Relative humidity range: 0% RH-95% RH-0% RH • Relative humidity gradient: 10% (0% RH-90% RH-0% RH), 5% (90% RH-95% RH and 95% RH-90% RH).
Weigh approximately 10 mg of Form Z of the present disclosure and Form B in the prior art for DVS test, and then collect the obtained solid for XRPD analysis. The results were summarized in Table 19, DVS plot of Form B was shown in FIG. 29, XRPD overlay of Form B was shown in FIG. 30, DVS plot of Form Z was shown in FIG. 31, and XRPD overlay of Form Z was shown in FIG. 32.
Description and definition of hygroscopicity (see appendix XIX J, guidance for hygroscopicity evaluation of Pharmacopoeia of the People's Republic of China 2010) • Deliquescent: sufficient water is absorbed to form a liquid, • Very hygroscopic: increase in mass is equal to or greater than 15 percent, • Hygroscopic: increase in mass is less than 15 percent and equal to or greater than 2 percent, • Slightly hygroscopic: increase in mass is less than 2 percent and equal to or greater than 0.2 percent. • Non-hygroscopic: increase in mass is less than 0.2 percent.

[5] = Particle size distribution study (laser particle size analyzer); conditions: for D10 / D50 / D90 / MV: wet method, Isopar G (0.2% lecithin), sonication 30 s
Procedure: The particle size distribution results of the present disclosure were collected on S3500-type laser particle size analyzer of the Microtrac company. The Microtrac S3500 was equipped with an SDC (Sample Delivery Controller) sampling system. The wet method was used in this test, using Isopar G (containing 0.2% lecithin) as the test dispersion medium. The process parameters of the laser particle size analyzer were as follows.
Approximately 10-30 mg of Form D of the present disclosure and Form B in the prior art were added into 5 mL Isopar G (0.2% lecithin) to form a suspension, respectively. The suspension was mixed well and then loaded into SDC loading system. Adjust the shading intensity to an appropriate range, and then started to collect data after sonication for 30 s. The results were summarized in Table 20, and the particle size distribution diagrams of Form D and Form B were shown in FIGS. 35 to 36, respectively.

CC(C)c1nc2cc(O)ccc2c(=O)n1-c1ccc(C#N)cc1 [Form AL, 4-(7-hydroxy-4-oxo-2-propan-2-ylquinazolin-3-yl) benzonitrile]
Solubility compared with Form B [1]: better solubility than Form B
Solubility in SGF ([1]; equilibrium 1 hr): 77.4 µg/mL (≈ 253 µM)
Solubility in SGF ([1]; equilibrium 2 hr): 78.8 µg/mL (≈ 258 µM)
Solubility in SGF ([1]; equilibrium 4 hr): 79.5 µg/mL (≈ 260 µM)
Crystal habit (PLM) [2]: regular particles
Powder flow property [2]: relatively good property on powder flow

CC(C)c1nc2cc(O)ccc2c(=O)n1-c1ccc(C#N)cc1 [Form B, 4-(7-hydroxy-4-oxo-2-propan-2-ylquinazolin-3-yl) benzonitrile, reference compound]
Solubility in SGF ([1]; equilibrium 1 hr): 77.5 µg/mL (≈ 254 µM)
solubility at 2 h ([1]; simulated gastric fluid (SGF), simulated gastric fluid, thermodynamic from solid, equilibrium 2 hr): 75.2 µg/mL (≈ 246 µM)
solubility at 4 h ([1]; simulated gastric fluid (SGF), simulated gastric fluid, thermodynamic from solid, equilibrium 4 hr): 73.6 µg/mL (≈ 241 µM)
Solubility in FaSSIF ([3]; equilibrium 1 hr): 33.3 µg/mL (≈ 109 µM)
Solubility in FaSSIF ([3]; equilibrium 2 hr): 34.8 µg/mL (≈ 114 µM)
Solubility in FaSSIF ([3]; equilibrium 4 hr): 35.9 µg/mL (≈ 118 µM)
Water uptake at 80% RH [4]: 0.2485
Hygroscopicity [4]: Slightly hygroscopic (increase in mass is less than 2 percent and equal to or greater than 0.2 percent)
D10 [5]: 62.3 μm
D50 [5]: 1085.0 μm
D90 [5]: 1331.0 μm
MV [5]: 795.2 μm

CC(C)c1nc2cc(O)ccc2c(=O)n1-c1ccc(C#N)cc1 [Form D, 4-(7-hydroxy-4-oxo-2-propan-2-ylquinazolin-3-yl) benzonitrile]
Solubility compared with Form B [1]: better solubility than Form B
Solubility in SGF ([1]; equilibrium 1 hr): 98.7 µg/mL (≈ 323 µM)
Solubility in SGF ([1]; equilibrium 2 hr): 95.4 µg/mL (≈ 312 µM)
Solubility in SGF ([1]; equilibrium 4 hr): 103.3 µg/mL (≈ 338 µM)
Solubility compared with Form B [3]: better solubility than Form B
Solubility in FaSSIF ([3]; equilibrium 2 hr): 88.3 µg/mL (≈ 289 µM)
Solubility in FaSSIF ([3]; equilibrium 4 hr): 87.1 µg/mL (≈ 285 µM)
Uniformity of particle size distribution compared with Form B [5]: more uniform particle size distribution than Form B
D10 [5]: 53.9 μm
D50 [5]: 117.2 μm
D90 [5]: 175.9 μm
MV [5]: 116.2 μm

CC(C)c1nc2cc(O)ccc2c(=O)n1-c1ccc(C#N)cc1 [Form Z, 4-(7-hydroxy-4-oxo-2-propan-2-ylquinazolin-3-yl) benzonitrile]
Solubility compared with Form B [1]: better solubility than Form B
Solubility in SGF ([1]; equilibrium 1 hr): 79.6 µg/mL (≈ 261 µM)
Solubility in SGF ([1]; equilibrium 2 hr): 90.7 µg/mL (≈ 297 µM)
Solubility in SGF ([1]; equilibrium 4 hr): 86.7 µg/mL (≈ 284 µM)
Solubility compared with Form B [3]: better solubility than Form B
Solubility in FaSSIF ([3]; equilibrium 1 hr): 31.4 µg/mL (≈ 103 µM)
Solubility in FaSSIF ([3]; equilibrium 2 hr): 42.7 µg/mL (≈ 140 µM)
solubility at 4 h ([3]; fasted-state simulated intestinal fluid (FaSSIF), thermodynamic from solid, equilibrium 4 hr): 56.1 µg/mL (≈ 184 µM)
Hygroscopicity compared with Form B [4]: relatively lower hygroscopicity than Form B
Water uptake at 80% RH [4]: 0.0303
Hygroscopicity [4]: Non-hygroscopic (increase in mass is less than 0.2 percent)
Crystal habit (PLM) [2]: regular particles
Powder flow property [2]: relatively good property on powder flow
